Patent publication US20240150277A1, “Covalent PPARG inverse-agonists” (Bayer Aktiengesellschaft, priority 2022, published 2024)
Like-named read-outs stand apart in the source and are kept apart here.

Tests used:
UMUC9 cells = assay: Proliferation UMUC9 H2B-GFP assay (Incucyte); assay type: cell-based; details: 7 days of treatment; for Emax: UM-UC-9, 168 h; for IC50: Day 1 subtracted, percentage of DMSO control
Experimental: Proliferation UMUC9 H2B-GFP assay
Instrument: Incucyte® (Sartorius).
Description: Incucyte® Proliferation Assay measures cell proliferation based on nuclei count using live-cell time-lapse imaging. […] Measurements were performed on the day of treatment (Day 1 reading) and after 7 days of treatment (Day 8 reading). Green fluorescence in cell nuclei is measured using the instrument (Image Channels: Phase, Green; Acquisition time: 300 ms; Magnification: 4×).
Analysis: Selected metrics for analysis: Phase Object Confluence (Percent), Nuclei Count (1/Well) and Total Nuclei Area (μm^2/Well). Day 1 measurements were subtracted from each Day 8 measurement and expressed as percentage of the vehicle (DMSO) control. Percentage proliferation values were then plotted against compound concentration using GraphPad PRISM software. The Sigmoidal 4PL X is log (concentration) model of […] was used. Relative IC50 values and % efficacy (span) is reported below.

PPARG receptors = biological target: T1, PPARG receptors (Homo sapiens, UniProt P37231); assay: RT-112-FABP4-NLuc Reporter Gene Assay (inverse agonism); assay type: cell-based; details: incubated over night; for Emax: RT112/84, read-out: PPARG_RT-112_FABP4_NLuc_inverse agonist Efficacy - [%], bladder cancer cell line RT-112/84, NanoLuc in FABP4 3′ UTR; for IC50: 50 μM to 0.03 nM
T1 construct: leading to PPARG dependent expression of the NanoLuc@ Luciferase; endogenous in cells
T1 sequence (P37231 1-505): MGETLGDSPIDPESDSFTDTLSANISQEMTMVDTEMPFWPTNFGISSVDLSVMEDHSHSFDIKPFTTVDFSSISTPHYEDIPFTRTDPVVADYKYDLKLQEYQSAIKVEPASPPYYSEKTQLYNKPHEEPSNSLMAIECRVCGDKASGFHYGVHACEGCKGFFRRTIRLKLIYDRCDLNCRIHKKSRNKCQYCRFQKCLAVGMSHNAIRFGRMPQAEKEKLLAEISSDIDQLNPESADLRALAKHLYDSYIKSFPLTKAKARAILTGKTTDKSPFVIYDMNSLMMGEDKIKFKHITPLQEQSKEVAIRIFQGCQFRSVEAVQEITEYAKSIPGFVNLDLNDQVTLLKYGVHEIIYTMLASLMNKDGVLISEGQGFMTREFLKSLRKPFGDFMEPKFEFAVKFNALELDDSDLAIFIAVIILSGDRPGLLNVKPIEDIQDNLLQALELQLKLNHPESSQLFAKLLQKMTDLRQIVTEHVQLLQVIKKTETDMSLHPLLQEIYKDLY
Experimental: Inverse agonists reduce the basal expression of the Luciferase resulting in a decrease of the Luciferase signal after addition of substrate and cell lysis. To exclude toxic effects of the compounds a parallel measurement of cell viability was performed based on the CellTiter Glo Assay (Promega).
On the next day 10 μl of test compounds dissolved in DMEM/F12 2% FBS and 0,01% BSA are placed in the wells of the microtiter plates. Final concentrations ranged from 50 μM to 0.03 nM. […] On the next day the NanoLuc Luciferase activity was measured by addition of 40 μl of NanoLuc substrate and lysis buffer (Promega, Madison, Wisconsin) diluted in 2 mM Ca-tyrode buffer (20 mM HEPES, 130 mM NaCl, 5 mM KCl, 5 mM NaHCO3, 2 mM MgCl2, pH 7,4). The resulting light signal was measured for 60 seconds in a luminometer. Every sample was tested in quadruples and mean values were used to calculate the IC50 values and efficacies of the compounds.

[1] = PPARG_RT-112_FABP4_NLuc_inverse agonist IC50 - [mol/l], bladder cancer cell line RT-112/84, NanoLuc in FABP4 3′ UTR

| Emax (PPARG receptors) | IC50 (PPARG receptors; read-out: PPARG_RT-112_FABP4_NLuc_inverse agonist IC50 - [mol/l], bladder cancer cell line RT-112/84, NanoLuc in FABP4 3′ UTR) | IC50 (PPARG receptors; [1]) | PPARG_RT-112_FABP4_NLuc_inverse agonist Efficacy - [%] (PPARG receptors; bladder cancer cell line RT-112/84, NanoLuc in FABP4 3′ UTR) | Structure (SMILES) | Emax (UMUC9 cells; % efficacy (span)) | IC50 (UMUC9 cells; UM-UC-9, relative IC50) | UM-UC-9 GFP proliferation Efficacy - [%] (UMUC9 cells; % efficacy (span)) | IC50 (UMUC9 cells; relative IC50, read-out: UM-UC-9 GFP proliferation IC50 -) |
| --- | --- | --- | --- | --- | --- | --- | --- | --- |
| 95% | 54.5 nM | – | – | O=C(NCc1ccc(F)c(F)c1)c1cc(C(=O)Nc2ccccn2)c(Cl)cc1F [Example 34, 4-chloro-N^1-(3,4-difluorobenzyl)-6-fluoro-N^3-(pyridin-2-yl)isophthalamide] | 100% | – | – | – |
| 108% | – | 0.45 nM | – | Cc1ccccc1NC(=O)c1cc(C(=O)NCc2ccccc2)cc(Cl)c1Br [Example 50, N^1-benzyl-4-bromo-5-chloro-N^3-(2-methylphenyl)benzene-1,3-dicarboxamide] | 50.8% | 5.06 nM | – | – |
| 102% | – | 21.5 nM | – | O=C(NCc1ccc(F)c(F)c1)c1cc(C(=O)Nc2ccc(N3CCOCC3)cc2)c(Cl)cc1F [Example 35, 4-chloro-N^1-(3,4-difluorobenzyl)-6-fluoro-N^3-(4-morpholinophenyl)isophthalamide] | 92.3% | 182 nM | – | – |
| 83.5% | – | 3.8 nM | – | Cc1cc(OC(F)F)ccc1NC(=O)c1cc(C(=O)NCc2ccccc2O)c(F)cc1Cl [Example 1, 4-chloro-N^3-[4-(difluoromethoxy)-2-methylphenyl]-6-fluoro-N′-[(2-hydroxyphenyl)methyl]benzene-1,3-dicarboxamide] | 51.4% | 2.89 nM | – | – |
| – | – | – | – | Cc1cc(N2CCOCC2)cnc1NC(=O)c1cc(C(=O)NCc2ccc(F)c(F)c2)c(F)cc1Cl [Example 41, 4-chloro-N^1-(3,4-difluorobenzyl)-6-fluoro-N^3-(3-methyl-5-morpholinopyridin-2-yl)isophthalamide] | 98.9% | – | – | – |
| 106% | – | 1.3 nM | – | O=C(NCc1ccc(F)cc1)c1cc(C(=O)Nc2ccc3oc(-c4cccc(Cl)c4)nc3c2)c(Cl)cc1F [Example 22, 4-chloro-N^3-[2-(3-chlorophenyl)-1,3-benzoxazol-5-yl]-6-fluoro-N^1-[(4-fluorophenyl)methyl]benzene-1,3-dicarboxamide] | 86.6% | 21.6 nM | – | – |
| 96% | – | 0.9 nM | – | Cc1cc(OCCO)ccc1NC(=O)c1cc(C(=O)NCc2ccc(F)c(F)c2)cc(Cl)c1Cl [Example 8, 4,5-dichloro-N^1-[(3,4-difluorophenyl)methyl]-N^3-[4-(2-hydroxyethoxy)-2-methylphenyl]benzene-1,3-dicarboxamide] | 71.5% | 32.2 nM | – | – |
| 110% | – | 33 nM | – | Cc1cc(OC(F)F)ccc1NC(=O)c1cc(C(=O)NC(CO)c2ccc(F)cc2)c(F)cc1Cl (stereo not drawn) [Example 2, 4-chloro-N^3-[4-(difluoromethoxy)-2-methylphenyl]-6-fluoro-N^1-[1-(4-fluorophenyl)-2-hydroxyethyl]benzene-1,3-dicarboxamide] | 72.7% | 204 nM | – | – |
| 77.5% | – | 0.4 nM | – | O=C(NCc1ccc(F)c(F)c1)c1cc(Cl)c(Cl)c(C(=O)Nc2ccc(C(F)(F)F)cn2)c1 [Example 13, 4,5-dichloro-N′-[(3,4-difluorophenyl)methyl]-N^3-[5-(trifluoromethyl)pyridin-2-yl]benzene-1,3-dicarboxamide] | 77% | 4800 nM | – | – |
| 114% | – | 0.455 nM | – | Cc1cccc(-c2nc3cc(NC(=O)c4cc(C(=O)NCc5ccc(F)c(F)c5)c(F)c(C)c4Cl)ccc3o2)c1 [Example 20, 4-chloro-N^1-[(3,4-difluorophenyl)methyl]-6-fluoro-5-methyl-N^3-[2-(3-methylphenyl)-1,3-benzoxazol-5-yl]benzene-1,3-dicarboxamide] | 69.6% | 5.91 nM | – | – |
| – | – | – | – | O=C(NCc1ccccc1)c1cc(Cl)c(Cl)c(C(=O)Nc2ccccc2)c1 [Example 16, N1-benzyl-4,5-dichloro-N^3-phenylbenzene-1,3-dicarboxamide] | 24.8% | 24.7 nM | – | – |
| 70.7% | – | 0.52 nM | – | COc1ccccc1CNC(=O)c1cc(Cl)c(Cl)c(C(=O)Nc2ccccc2)c1 [Example 15, 4,5-dichloro-N-[(2-methoxyphenyl)methyl]-N^3-phenylbenzene-_,3-dicarboxamide] | 60.6% | 7.96 nM | – | – |
| 92.5% | – | 7.65 nM | – | Cc1ccc(NC(=O)c2cc(C(=O)NCc3ccccc3)c(F)cc2Cl)cc1 [Example 24, N^1-benzyl-4-chloro-6-fluoro-N^3-(4-methylphenyl)benzene-1,3-dicarboxamide] | 24.4% | 25.1 nM | – | – |
| 116% | – | 1.27 nM | – | Cc1cc(N2CCCC(O)C2)ccc1NC(=O)c1cc(C(=O)NCc2ccc(F)c(F)c2)c(F)cc1Cl (single isomer, unassigned) [Example 5, 4-chloro-N′-[(3,4-difluorophenyl)methyl]-6-fluoro-N^3-{4-[3-hydroxypiperidin-1-yl]-2-methylphenyl}benzene-1,3-dicarboxamide] | – | – | 78.67% | 5.38 nM |
| – | – | 130 nM | 81.00% | Cc1cc(C(F)(F)F)ccc1NC(=O)c1cc(C(=O)NC(CO)c2ccccc2)c(F)cc1Cl (single isomer, unassigned) [Example 29, 4-chloro-6-fluoro-N^1-[(1R*)-2-hydroxy-1-phenylethyl]-N^3-[2-methyl-4-(trifluoromethyl)phenyl]benzene-1,3-dicarboxamide] | – | – | – | – |
| 114% | – | 1600 nM | – | C#Cc1cc(F)c(C(=O)NCc2ccc(F)c(F)c2)cc1C(=O)Nc1ccccc1 [Example 40, N^1-(3,4-difluorobenzyl)-4-ethynyl-6-fluoro-N^3-phenylisophthalamide] | 72.1% | 391 nM | – | – |
| – | – | – | – | COc1ccccc1CNC(=O)c1ccc(Cl)c(C(=O)Nc2ccccc2)c1 [Example 46, 4-chloro-N^1-[(2-methoxyphenyl)methyl]-N^3-phenylbenzene-1,3-dicarboxamide] | 70.6% | 2630 nM | – | – |
| – | – | – | – | CC(C)(O)c1ccc(NC(=O)c2cc(C(=O)NCc3ccc(F)c(F)c3)c(F)cc2Cl)cc1 [Example 51, 4-chloro-N^1-[(3,4-difluorophenyl)methyl]-6-fluoro-N^3-[4-(2-hydroxypropan-2-yl)phenyl]benzene-1,3-dicarboxamide] | 69.2% | 38.5 nM | – | – |
| – | – | – | – | O=C(NCc1ccccc1)c1cc(C(=O)Nc2ccccc2)c(Cl)cc1F [Example 28, N^1-benzyl-4-chloro-6-fluoro-N^3-phenylbenzene-1,3-dicarboxamide] | 31.2% | – | – | – |
| 74% | – | 1.3 nM | – | O=C(NCc1ccccc1)c1cc(Cl)c(Cl)c(C(=O)Nc2ccc(Cl)cn2)c1F [Example 32, N^1-benzyl-4,5-dichloro-N^3-(5-chloropyridin-2-yl)-2-fluorobenzene-1,3-dicarboxamide] | – | – | – | – |
| – | – | – | – | O=C(NCc1ccccc1)c1ccc(Br)c(C(=O)Nc2ccccc2)c1 [Example 48, N^1-benzyl-4-bromo-N^3-phenylbenzene-1,3-dicarboxamide] | 43.1% | – | – | – |
| – | – | – | – | O=C(NCc1ccccc1)c1ccc(Cl)c(C(=O)Nc2ccccc2)c1 [Example 43, N^1-benzyl-4-chloro-N^3-phenylbenzene-1,3-dicarboxamide] | 27.1% | – | – | – |
| – | – | – | – | O=C(NCc1ccc(F)cc1)c1ccc(Cl)c(C(=O)Nc2ccccc2)c1 [Example 45, 4-chloro-N^1-[(4-fluorophenyl)methyl]-N^3-phenylbenzene-1,3-dicarboxamide] | 57.6% | – | – | – |
